According to patent US20210395313A1, “PEPTIDE PAC1 ANTAGONISTS” (AMGEN INC., priority 2017, published 2021):
Bridges are numbered along the chain shown (N, C = ends). Where no end group is shown, it is not given here.

Key:
human PAC1 receptor = target: T1, human PAC1 receptor (Homo sapiens, UniProt P41586); experiment: LANCE Ultra cAMP accumulation antagonist assay in SHSY-5Y cells; format: cell-based;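 also: inhibition of cAMP accumulation evoked by PAC1 agonist at its EC80 in SHSY-5Y cells endogenously expressing receptor, 30 min preincubation then 15 min agonist, TR-FRET readout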
T1 construct: SHSY-5Y (human neuroblastoma cell line) and RG-2 (rat glioma cell line) cells endogenously express human and rat PAC1 receptors, respectively; endogenous in cells; host or cells: SHSY-5Y human neuroblastoma cells
T1 sequence (P41586 21-468): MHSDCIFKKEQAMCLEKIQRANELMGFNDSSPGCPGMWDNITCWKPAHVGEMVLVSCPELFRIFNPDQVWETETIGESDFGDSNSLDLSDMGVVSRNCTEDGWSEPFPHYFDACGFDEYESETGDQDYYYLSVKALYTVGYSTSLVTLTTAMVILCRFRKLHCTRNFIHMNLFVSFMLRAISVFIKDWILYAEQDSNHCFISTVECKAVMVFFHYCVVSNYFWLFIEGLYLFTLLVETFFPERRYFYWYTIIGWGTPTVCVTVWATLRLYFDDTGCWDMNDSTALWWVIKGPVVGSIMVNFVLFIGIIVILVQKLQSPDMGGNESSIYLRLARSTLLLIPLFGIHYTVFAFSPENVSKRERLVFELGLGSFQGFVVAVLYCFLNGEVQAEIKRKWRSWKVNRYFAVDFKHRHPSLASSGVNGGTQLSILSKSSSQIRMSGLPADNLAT

PAC1 = target: T2, PAC1 (Rattus norvegicus, UniProt P32215); experiment: Rat maxadilan-induced increase in blood flow (MIIBF) PD model, laser Doppler imaging; format: in vivo; details: for inhibition of MIIBF (dermal blood flow): single bolus i.v., lowest dose of 0.1 mg/kg, 5 min prior to maxadilan, 35 min post peptide treatment; for inhibition of maxadilan-induced increase in DBF: single bolus s.c., lowest dose of 0.3 mg/kg, 15 min prior to maxadilan, 45 min post peptide treatment
T2 construct: Naive male Sprague Dawley® rats aged 8-12 weeks at the time of the study were purchased from Charles River Laboratories; tissue Charles River Laboratories; host or cells: live male Sprague Dawley rats; dermal blood flow on abdominal skin
T2 sequence (P32215 20-523): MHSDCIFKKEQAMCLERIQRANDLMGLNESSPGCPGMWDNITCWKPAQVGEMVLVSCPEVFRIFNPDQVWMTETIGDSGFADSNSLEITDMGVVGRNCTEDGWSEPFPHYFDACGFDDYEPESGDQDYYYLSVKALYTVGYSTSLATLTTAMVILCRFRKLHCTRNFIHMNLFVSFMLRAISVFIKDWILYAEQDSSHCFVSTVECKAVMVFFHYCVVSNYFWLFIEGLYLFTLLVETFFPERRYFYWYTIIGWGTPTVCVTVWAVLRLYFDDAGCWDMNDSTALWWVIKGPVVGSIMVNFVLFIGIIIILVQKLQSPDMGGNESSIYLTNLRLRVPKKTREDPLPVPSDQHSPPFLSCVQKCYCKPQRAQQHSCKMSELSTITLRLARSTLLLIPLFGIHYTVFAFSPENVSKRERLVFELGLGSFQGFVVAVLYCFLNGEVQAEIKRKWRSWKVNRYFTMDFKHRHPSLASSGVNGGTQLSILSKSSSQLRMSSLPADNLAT
Method: PAC1 peptide antagonists were also evaluated in an in vivo pharmacodynamic model—a model of maxadilan-induced increase in blood flow.
Naive male Sprague Dawley® rats aged 8-12 weeks at the time of the study were purchased from Charles River Laboratories. Animals were group-housed in non-sterile, ventilated micro-isolator housing in Amgen Assessment and Accreditation of Laboratory Animal Committee (AAALAC)-accredited facility. Animals had ad libitum access to pelleted feed (Harlan Teklad 2020X, Indianapolis, IN) and water (on-site generated reverse osmosis) via automatic watering system.
All PAC1 peptides were tested in a rat maxadilan-induced increase in blood flow (MIIBF) pharmacodynamic (PD) model with a laser Doppler imaging. A dosing solution of maxadilan (Bachem, H6734.0500) was prepared fresh daily by diluted maxadilan stock solution (0.5 mg/mL) in 1× PBS to the final concentration of 0.5 μg/mL. All tested peptides were prepared in 1× PBS at different concentrations depend on the dose required for the experiment and given in a single bolus i.v. or s.c. injection. A laser Doppler imager (LDI-2, Moor Instruments, Ltd, Wilmington, Del.) was used to measure dermal blood flow (DBF) on the shaved skin of the rat abdomen with a low-power laser beam generated by a 633 nm helium-neon bulb. The measurement resolution was 0.2 to 2 mm, with scanning distances between the instrument aperture and the tissue surface of 30 cm. In this report, DBF was measured and expressed as % change from baseline [100×(individual post-CAP flux-individual baseline flux)/individual baseline flux] and further calculated to % Inhibition to quantify the magnitude of drug effect [Mean of vehicle % change from BL−individual drug treated rat % change from BL)/Mean of vehicle % change from BL].
On the test day, following anesthetization with propofol, the rat's abdominal area was shaved and each animal was placed in a supine position on a temperature-controlled circulating warm-water pad to maintain a stable body temperature during the study. After a 10 to 15 minute stabilization period, a rubber O-ring (0.925 cm inner diameter, O-Rings West, Seattle, Wash.) was placed on the rat abdomen without directly positioning it over a visible blood vessel while the rat placed in a supine position on a temperature-controlled circulating warm-water pad to maintain a stable body temperature during the study. After placement of an O-ring on the selected area, a baseline (BL) DBF measurement was taken. After the BL scan, PAC1 peptides were administrated either 5 min for i.v., or 15 min for s.c. then followed by 20 μL (in 0.5 μg/mL) intradermal injection of maxadilan at the center of the O-ring. The post-maxadilan DBF was measured at 30 min and the post peptides time was 35 min for i.v. and 45 min for s.c. respectively. The O-ring serves as an area of interest in which the DBF will be analyzed within the O-ring.
All DBF results were expressed as the mean±SEM. A one-way ANOVA followed by Dunnett's Multiple Comparison Test (MCT) was used to assess the statistical significance of PAC1 peptides effects relative to the vehicle within the study. A p<0.05 was used to determine significance between any two groups.

rat PAC1 receptor = target: T3, rat PAC1 receptor (Rattus norvegicus, UniProt P32215); experiment: LANCE Ultra cAMP accumulation antagonist assay in RG-2 cells; format: cell-based;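 also: RG-2 rat glioma cells endogenously expressing PAC1, test peptide preincubated 30 min, then PAC1 agonist added at its EC80 for 15 min, cAMP accumulation read by LANCE Ultra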
T3 construct: SHSY-5Y (human neuroblastoma cell line) and RG-2 (rat glioma cell line) cells endogenously express human and rat PAC1 receptors, respectively; endogenous in cells; host or cells: RG-2 rat glioma cells
T3 sequence (P32215 20-523): T2 sequence (P32215 20-523)

[1] = rat plasma, 37° C., 0 h (baseline)
Method: (§1) To model degradation in blood, PAC1 peptides of the present application were incubated in vitro with rat plasma. The stability analysis was conducted in a manner similar to as previously described by Souverain et al. (J. of Pharmaceutical and Biomedical Analysis, 35 (2004) 913-920).
(§2) Briefly, PAC1 peptides were spiked into rat plasma and incubated at 37° C. for up to 6 hours. Employing the reverse stability technique for various time points, plasma samples were quenched by the addition of perchloric acid in water containing internal standard (IS) and vortexed undergoing protein precipitation extraction (PPE). Following the vortex mix, samples were centrifuged and the supernatant containing PAC1 peptide and IS was subsequently analyzed using a liquid chromatography mass-spectrometry (LC-MS) system (Sciex® API 5500). The peak area ratio of intact PAC1 peptide to IS was determined for each time point. Peptide stability was reported as a percentage of the peak area ratio at each time point relative to the peak are ratio of a baseline sample (pre-incubation).

in vitro = details: rat, plasma
Method: as §1, §2
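For % Intact Peptide Remaining in this document: peptides incubated in vitro in rat plasma at 37 °C up to 6 h, intact peptide quantified by LC-MS versus internal standard, expressed relative to pre-incubation baseline (100%).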

## CC[C@H](C)[C@H](NC(=O)[C@H](C)NC(=O)[C@H](CCCCN)NC(=O)[C@H](CCCNC(=N)N)NC(=O)[C@H](Cc1ccccc1)NC(=O)[C@H](CCC(N)=O)NC(=O)[C@@H]1CSSC[C@H](N)C(=O)N[C@@H](CC(=O)O)C(=O)N[C@@H](C)C(=O)N[C@@H]([C@@H](C)O)C(=O)N1)C(=O)N[C@@H](CC(=O)O)C(=O)N[C@@H](CC(=O)O)C(=O)N[C@H]1CSSC[C@@H](C(=O)N[C@@H](CCSC)C(=O)N[C@@H](CCCCN)C(=O)N[C@@H](CCC(N)=O)C(=O)N[C@@H](CCCCN)C(=O)N[C@@H](CCCCN)C(=O)N[C@@H](CCCCN)C(=O)N[C@@H](CCC(=O)O)C(=O)N[C@@H](Cc2ccccc2)C(=O)N[C@@H](CCCCN)C(=O)N[C@@H](C)C(N)=O)NC(=O)C(C)(C)NC(=O)[C@H](CCCCN)NC(=O)[C@H](Cc2ccccc2)NC(=O)[C@H](C(C)C)NC(=O)[C@H](CO)NC(=O)CNC(=O)[C@@H]2CCCN2C(=O)[C@H](C(C)C)NC(=O)[C@H](CC(N)=O)NC(=O)[C@H](CO)NC(=O)[C@H](Cc2c[nH]cn2)NC(=O)[C@H](Cc2c[nH]cn2)NC(=O)[C@H](C)NC(=O)[C@H](CCC(N)=O)NC(=O)[C@H](CCCCN)NC(=O)[C@H](CCC(N)=O)NC1=O [SEQ ID NO 250]
Human PAC1 receptor
  IC50: 1 to 100 nM
PAC1
  inhibition of MIIBF (dermal blood flow): statistically significant inhibition
Rat PAC1 receptor
  IC50: 0.01 to 1 nM

## CC[C@H](C)[C@H](NC(=O)[C@H](C)NC(=O)[C@H](CCCCN)NC(=O)[C@H](CCCNC(=N)N)NC(=O)[C@H](Cc1ccccc1)NC(=O)[C@H](CCC(N)=O)NC(=O)[C@@H]1CSSC[C@H](N)C(=O)N[C@@H](CC(=O)O)C(=O)N[C@@H](C)C(=O)N[C@@H]([C@@H](C)O)C(=O)N1)C(=O)N[C@@H](CC(=O)O)C(=O)N[C@@H](CC(=O)O)C(=O)N[C@H]1CSSC[C@@H](C(=O)N[C@@H](CCSC)C(=O)N[C@@H](CCCCN)C(=O)N[C@@H](CCC(N)=O)C(=O)N[C@@H](CCCCN)C(=O)N[C@@H](CCCCN)C(=O)N[C@@H](CCCCN)C(=O)N[C@@H](CCC(=O)O)C(=O)N[C@@H](Cc2ccccc2)C(=O)N[C@@H](CCCCN)C(=O)N[C@@H](C)C(=O)NCC(N)=O)NC(=O)C(C)(C)NC(=O)[C@H](CCCCN)NC(=O)[C@H](Cc2ccccc2)NC(=O)[C@H](C(C)C)NC(=O)[C@H](CO)NC(=O)CNC(=O)[C@@H]2CCCN2C(=O)[C@H](C(C)C)NC(=O)[C@H](CC(N)=O)NC(=O)[C@H](CO)NC(=O)[C@H](Cc2c[nH]cn2)NC(=O)[C@H](Cc2c[nH]cn2)NC(=O)[C@H](C)NC(=O)[C@H](CCC(N)=O)NC(=O)[C@H](CCCCN)NC(=O)[C@H](CCC(N)=O)NC1=O [SEQ ID NO 283]
[1]
  % Intact Peptide Remaining: 100%
Human PAC1 receptor
  IC50: 1 to 100 nM
In vitro
  remaining at 0.5 h: 87.5%
  remaining at 1 h: 112%
  remaining at 2 h: 101%
  remaining at 4 h: 115%
  remaining at 6 h: 98.9%
PAC1
  inhibition of MIIBF (dermal blood flow): statistically significant inhibition
Rat PAC1 receptor
  IC50: 0.01 to 1 nM

## CDATCQFRKAIDDCAKQAHHSNVPGSVFKACMKQKKKEFKAG-NH2 (disulfide 1-5, 14-31) [SEQ ID NO 180]
Human PAC1 receptor
  IC50: 0.01 to 1 nM
PAC1
  inhibition of MIIBF (dermal blood flow): statistically significant inhibition
  inhibition of maxadilan-induced increase in DBF: statistically significant inhibition
Rat PAC1 receptor
  IC50: 0.01 to 1 nM

## CDATCQFRKAIDDCARQAHHSNVPGSVFKACMKQKKKEWKAGH (disulfide 1-5, 14-31) [SEQ ID NO 151]
[1]
  % Intact Peptide Remaining: 100%
Human PAC1 receptor
  IC50: 0.01 to 1 nM
In vitro
  remaining at 0.5 h: 120%
  remaining at 1 h: 87%
  remaining at 2 h: 104%
  remaining at 4 h: 112%
  remaining at 6 h: 107%
Rat PAC1 receptor
  IC50: 0.01 to 1 nM

## CDATCQFRKAIDDCDRQAHHSNVPGSVFKACMKQKKKEWKAG-NH2 (disulfide 1-5, 14-31) [SEQ ID NO 163]
Human PAC1 receptor
  IC50: 0.01 to 1 nM
PAC1
  inhibition of maxadilan-induced increase in DBF: statistically significant inhibition
Rat PAC1 receptor
  IC50: 0.01 to 1 nM

## CDATCQFRKAIDDCHLLAWHANVPGSVFKACMKQKKKEFKAG-NH2 (disulfide 1-5, 14-31) [SEQ ID NO 140]
[1]
  % Intact Peptide Remaining: 100%
In vitro
  remaining at 0.5 h: 101%
  remaining at 1 h: 91.4%
  remaining at 2 h: 93.4%
  remaining at 4 h: 107%
  remaining at 6 h: 108%

## CDATCQFRKAIDDCLLRAWHSNVPGSVFKACMKQKKKEFKAG-NH2 (disulfide 1-5, 14-31) [SEQ ID NO 85]
Human PAC1 receptor
  IC50: 0.01 to 1 nM
PAC1
  inhibition of maxadilan-induced increase in DBF: statistically significant inhibition
Rat PAC1 receptor
  IC50: 0.01 to 1 nM

## CDATCQFRKAIDDCQKQAHHSNVPGSVFKACMKQKKKEFKAGY (disulfide 1-5, 14-31) [SEQ ID NO 164]
[1]
  % Intact Peptide Remaining: 100%
In vitro
  remaining at 0.5 h: 94.3%
  remaining at 1 h: 113%
  remaining at 2 h: 108%
  remaining at 4 h: 106%
  remaining at 6 h: 96.5%

## CDATCQFRKAIDDCVKQAHHSNVPGSVFKACMKQKKKEFKAG-NH2 (disulfide 1-5, 14-31) [SEQ ID NO 179]
Human PAC1 receptor
  IC50: 0.01 to 1 nM
PAC1
  inhibition of MIIBF (dermal blood flow): statistically significant inhibition
Rat PAC1 receptor
  IC50: 0.01 to 1 nM

## CDATCQFRKAIDDCYYYAMHSNVPGSVWKACMKQKKKEFKAG-NH2 (disulfide 1-5, 14-31) [SEQ ID NO 150]
[1]
  % Intact Peptide Remaining: 100%
In vitro
  remaining at 0.5 h: 117%
  remaining at 1 h: 89.7%
  remaining at 2 h: 92.1%
  remaining at 4 h: 90.2%
  remaining at 6 h: 92.8%

## GCDATCQFRKAIDDCQKQAHHSNVPGSVFKACMKQKKKEFKAG-NH2 (disulfide 2-6, 15-32) [SEQ ID NO 181]
Human PAC1 receptor
  IC50: 1 to 100 nM
PAC1
  inhibition of MIIBF (dermal blood flow): statistically significant inhibition
Rat PAC1 receptor
  IC50: 0.01 to 1 nM

## GCDATCQFRKAIDDCVRQAHHSNVPGSVFKACMKQKKKEWKAGH (disulfide 2-6, 15-32) [SEQ ID NO 88]
[1]
  % Intact Peptide Remaining: 100%
Human PAC1 receptor
  IC50: 0.01 to 1 nM
In vitro
  remaining at 0.5 h: 81.4%
  remaining at 1 h: 90.8%
  remaining at 2 h: 84%
  remaining at 4 h: 110%
  remaining at 6 h: 100%
Rat PAC1 receptor
  IC50: 0.01 to 1 nM

## SCDATCQFRKAIDDCQKQAHHSNVPGSVFKACMKQKKKEFKAG-NH2 (disulfide 2-6, 15-32) [SEQ ID NO 183]
Human PAC1 receptor
  IC50: 1 to 100 nM
PAC1
  inhibition of MIIBF (dermal blood flow): statistically significant inhibition
Rat PAC1 receptor
  IC50: 0.01 to 1 nM
